Reference: patent US5091521A, “Cis-platinum complexes, a process for the preparation thereof, and pharmaceuticals containing these compounds” (priority 1986, dated 1992)

Assays:
[1] = test system: L1210 leukemia cells; assay: Colonization by L1210 leukemia cells in soft agar (cytostatic activity in vitro); assay type: cell-based, mouse; details: L1210 colony formation in soft agar, 7 days
Experimental: The cytostatic activity of the compounds according to the invention is determined on L1210 leukemia cells of the mouse. In detail, the following test systems were used:
a) Colonization by L1210 leukemia cells in soft agar
In this test cytostatically active substances cause the number of colonies observed to be reduced compared to an untreated control. In detail, the test is carried out as follows:
500 leukemia cells per plate are incubated for 1 hour at 37° C. with different concentrations of the test substance. The cells are subsequently washed twice with McCoy 5A medium and finally poured out into petri dishes after adding 0.3% of agar. Controls are incubated only with fresh medium. Instead of incubating for one hour, different concentrations and test substances are in many cases mixed with the upper agar layer in order to thus achieve continuous exposition of the cells over the entire incubation time. After solidification of the agar, the plates are incubated in an incubator for 7 days at 37° C. (5% by volume of CO2, 95% relative atmospheric humidity). The number of colonies produced with a diameter of more than 60 μm is subsequently counted. The results are given as the number of colonies in the treated agar plate, in per cent of the untreated control. From the dose-action curve thus attained, the IC50 is determined as a measure of the activity of the substance.

[2] = Solubility in water; assay type: physicochemical
[3] = test system: NMRI mice; assay: Determination of the acute toxicity; assay type: in vivo, mouse; details: 1 × i.p., survival on day 14
Experimental: b) Determination of the acute toxicity
In order to determine the acute toxicity, NMRI mice are injected intraperitoneally on day 0 with various doses of a test substance, dissolved in 0.5 ml of 5% glucose solution. Control groups receive only 0.5 ml of 5% strength glucose solution. 5 mice are used per concentration of the test substance. On day 14, the number of surviving mice is determined, and the LD5, LD50 and LD95 are determined from this according to the Lichtfield Wilcoxon method.

[4] = test system: L1210 leukemia; assay: In vivo activity of the platinum complexes against L1210 leukemia of the mouse; set-up: optimum Dose (greatest antitumoral effect), L1210: unit not given here; details: for T/C % L1210 (at optimum dose): mean survival time vs untreated control; for cytostatic activity in the "in vivo" test using the L1210 tumor cell line: in words
Experimental: c) In vivo activity of the platinum complexes against L1210 leukemia of the mouse
Ascitic fluid is removed under sterile conditions from DBA2 mice (female, 18-20 g) 7 days after implantation. The ascites is washed three times with PBS, counted, and adjusted to a cell number of 10^6 in 0.2 ml of PBS.
10^6 cells, suspended in 0.2 ml of PBS, are subsequently injected intraperitoneally into DBF1 mice (female, 18-20 g). 6 animals per group are employed for each substance concentration or as control.
Determination of the antitumoral activity
a) The animals are weighed on days 1 and 5 after injection of the test substance. A weight loss of more than 20% on day 5 is regarded as an indicator of a toxic substance action.
b) At the end of the experiment (death of all animals or surviving animals on day 60), the mean survival time of the animals in each group is determined, so long as at least 65% of the animals were still living on day 5 of the experiment. The average survival time is determined exclusively for animals dying during the experiment. Long-term survivors (LTS) are not taken into account in this calculation and are specified separately.
From the mean survival time (MST) of the […] group and of the control group (MSTc), the antitumoral activity (T/C) for each substance concentration is determined in per cent of the untreated control from the following formula: [formula]
The dose which causes the greatest antitumoral effect (optimal dosage) and in each case one dose step above and below this dose are collated in Table 1. Animals which are still living on day 60 of the experiment are listed separately as "long-term survivors".

[5] = test system: tumor cells which are resistant towards cis-platin; assay: Cross resistance to cis-diamminedichloroplatinum(II) in vitro / activity in cisplatin-resistant tumor cells; assay type: cell-based; details: in words
[6] = treatment program 5 × i.p./i.p.
[7] = treatment program 3 × i.p./i.p.
[8] = treatment program 2 × i.p./i.p.

| SMILES | IC50 [1] [µg/mL] | Solubility in water [2] [mg/mL] | LD50 [3] [mg/kg] | optimum Dose (greatest antitumoral effect), L1210 [4, 7] | T/C % L1210 (at optimum dose) [4, 7] [%] | other results |
| --- | --- | --- | --- | --- | --- | --- |
| CC(CN)(CN)COCC(O)CO.[Cl][Pt][Cl] (stereo not drawn) [Compound 13, N,N'-(2-(2',3'-dihydroxypropyloxymethyl)-2-methyl-1,3-propanediamine)dichloroplatinum(II)] | 1.25 | 25 | 57.3 | – | – | optimum Dose (greatest antitumoral effect), L1210 [4, 6]: 8; T/C % L1210 (at optimum dose) [4, 6]: 156% |
| COCC(O)COCC(C)(CN)CN.[Cl][Pt][Cl] (stereo not drawn) [Compound 14, N,N'-(2-(2'-hydroxy-3'-methoxypropyloxymethyl)-2-methyl-1,3-propanediamine)dichloroplatinum(II)] | 0.75 | 16 | 57.1 | 4 | 168 | – |
| COCC(C)(CN)CN.O=C([O-])CC(=O)[O-].[Pt+2] [Compound 30, N,N'-(2-methyloxymethyl-2-methyl-1,3-propanediamine)platinum(II) malonate] | 1.4 | – | – | – | – | – |
| CC(=O)NC1(CO)C[NH][Pt]([Cl])([Cl])[NH]C1 [Compound 17, N,N'-(2-acetamido-2-hydroxymethyl-1,3-propanediamine)di-chloroplatinum(II)] | 1.1 | 10 | 50 to 100 | 30 | 113 | – |
| CC(CN)(CN)CO[C@@H]1CC[C@H](O)[C@@H](CO)O1.[Cl][Pt][Cl] [Compound 15, N,N'-(2-(2',3'-didesoxy-alpha-D-erythrohexopyranosyloxy-methyl)-2-methyl-1,3-propanediamine)dichloroplatinum(II)] | 2.9 | 17 | 1 to 5 | – | – | – |
| CCC(CN)(CN)COC.O=C([O-])C1(C(=O)[O-])CCC1.[Pt+2] [Compound 32, N,N'-(2-ethyl-2-methyloxymethyl-1,3-propanediamine)platinum(II) 1,1-cyclobutanedicarboxylate] | 3.6 | 70 | 437 | – | – | T/C % L1210 (at optimum dose) [4, 6]: 194% |
| COCC(C)(CN)CN.O=C([O-])C1(C(=O)[O-])CCC1.[Pt+2] [Compound 31, N,N'-(2-methyloxymethyl-2-methyl-1,3-propanediamine)platinum(II) 1,1-cyclobutanedicarboxylate] | 2.6 | 15 | 250 | – | – | optimum Dose (greatest antitumoral effect), L1210 [4, 8]: 112; LTS (Longterm survivor), L1210 ([4]; treatment program 2 × i.p./i.p., optimum dose, animals living on day 60): 3/6; T/C % L1210 (at optimum dose) [4, 8]: 226% |
| CCC(CN)(CN)COC.[Cl][Pt][Cl] [Compound 12, N,N'-(2-ethyl-2-methoxymethyl-1,3-propanediamine)dichloro-platinum(II)] | 0.5 | – | 19 | 3 | 227 | cross resistance in vitro to cis-diamminedichloroplatinum(II) [5]: only partially cross resistant; cytostatic activity in the "in vivo" test using the L1210 tumor cell line [4]: high cytostatic activity |
| N.N.[Cl][Pt][Cl] [Cisplatin, cis-diamminedichloroplatinum (II), reference compound] | 0.04 | – | – | 4 | 157 | – |
| CCC(CN)(CN)COC.O=C([O-])CC(=O)[O-].[Pt+2] [corresponding malonate derivative] | – | – | – | – | – | cross resistance in vitro to cis-diamminedichloroplatinum(II) [5]: only partially cross resistant; cytostatic activity in the "in vivo" test using the L1210 tumor cell line [4]: high cytostatic activity |
| COCC(C)(CN)CN.[Cl][Pt][Cl] [Compound 11, N,N'-(2-methoxymethyl-2-methyl-1,3-propanediamine)dichloro-platinum(II)] | 1.4 | 3 | – | – | – | – |
